Data set [1] relates to B16. The data set can be described thus: Inhibition of alpha-MSH-stimulated melanogenesis in mouse B16 cells assessed as melanin release after 72 hrs. It is filed as functional, cell-based. As to conditions: for IC50: B16, 72 h.
In data set [2] the test system is B16. Description: Cytotoxicity against mouse B16 cells assessed as cell viability. The format is cell-based.

As usually defined, the IC50 is the concentration that gives 50% inhibition.

Structures are written as SMILES. Converted amounts (≈) assume the structure as drawn. Some results are limits rather than exact numbers.

With `OC[C@H]1O[C@@H](Oc2ccc(O)cc2)[C@H](O)[C@@H](O)[C@@H]1O` [ARBUTIN], the 50% inhibitory concentration (IC50) in data set [1] was 67.9 µg/mL (≈ 249 µM).
`CC(C)=C/C=C1\O[C@@H]2CC(C)=CC(=O)[C@@H]2[C@]1(C)O` [BISABOLANGELONE]: in data set [1], the inhibition entry was “Dose-dependent effect” and the IC50 was 5.3 µg/mL (≈ 21.3 µM). The Activity entry in data set [2] was “Non-toxic”.
Take `C/C=C(/C)C(=O)O[C@H]1Cc2cc3ccc(=O)oc3cc2OC1(C)C` [DECURSINOL ANGELATE]: in data set [1], the inhibition entry is “Dose-dependent effect” and the IC50 stood at 5.8 µg/mL (≈ 17.7 µM). In data set [2], the Activity entry is “Non-toxic”.
`C=C[C@@H](O)C#CC#C[C@@H](O)/C=C\CCCCCCC` [FALCARINDIOL]: in data set [1], the inhibition result was “Dose-dependent effect” and the half-maximal inhibitory concentration (IC50) stood at 2.9 µg/mL (≈ 11.1 µM). Moreover, in data set [2], the Activity entry is “Non-toxic”.
For the compound `O=c1cc(CO)occ1O` [KOJIC ACID], the IC50 in data set [1] was 5.5 µg/mL (≈ 38.7 µM).
Consider `CO[C@@]1(/C=C/C(C)(C)O)O[C@H]2CC(C)=CC(=O)[C@H]2[C@@]1(C)O` [OSTERIVOLONE A], for which, in data set [1], the inhibition entry is “Dose-dependent effect” and the IC50 stood at 1.1 µg/mL (≈ 3.71 µM). Moreover, the Activity result in data set [2] was “Non-toxic”.
On to `COC(C)(C)/C=C/[C@]1(OC)O[C@H]2CC(C)=CC(=O)[C@H]2[C@@]1(C)O` [OSTERIVOLONE B], for which, in data set [1], the inhibition result is “Dose-dependent effect” and the IC50 came to 5.6 µg/mL (≈ 18 µM). The Activity result in data set [2] is reported as “Non-toxic”.
For the compound `CO[C@@]1(C(C=C(C)C)OC(C=C(C)C)[C@]2(O)O[C@H]3CC(C)=CC(=O)[C@H]3[C@@]2(C)O)O[C@H]2CC(C)=CC(=O)[C@H]2[C@@]1(C)O` (some centres undefined) [OSTERIVOLONE C], in data set [1], the inhibition result was “Dose-dependent effect” and the concentration for half-maximal inhibition (IC50) came out at 4.5 µg/mL (≈ 8.03 µM). Further, in data set [2], the Activity result was “Non-toxic”.
Take `CC(C)=C/C=C1\O[C@H]2C[C@](C)(O)CC(=O)[C@H]2[C@@]1(C)O` [OSTERIVOLONE D]: in data set [1], the inhibition entry is “Dose-dependent effect” and the IC50 was found to be 1.9 µg/mL (≈ 7.13 µM). In data set [2], the Activity entry was “Non-toxic”.
In the case of `O=c1ccc2cc3ccoc3cc2o1` [PSORALEN], the concentration for half-maximal inhibition (IC50) in data set [1] is over 200 µg/mL.

The values above are taken from ChEMBL document CHEMBL2016566, “Melanogenesis inhibitory bisabolane-type sesquiterpenoids from the roots of Angelica koreana” (Bioorg Med Chem Lett, 2012).
